Source: patent US20250049816A1, “COMPOSITIONS COMPRISING THYMOQUINONE AND VITAMIN D” (N.S. Oils Ltd., priority 2021, published 2025)
Entries after “also recorded” stand apart in the source; their conditions may differ.

How the values were obtained:
Type in all cases: cell-based, murine
[1] = test system: differentiated adipocytes (3T3-L1 cells); assay: Oil red O staining, lipid droplet size in differentiated cultured adipocytes; conditions: 6 days, vs untreated control (C)
Experimental: (§1) 3T3-L1 murine fibroblasts were obtained from American Type Culture Collection (Rockville, MD, USA). After thawing, cells were resuspended in DMEM, supplemented with 10% heat-inactivated fetal bovine serum (FBS, Invitrogen, Carlsbad, CA, USA) and 1% antibiotic/antimycotic solution (Invitrogen). Culture medium was replaced every 3 days containing 0.25 μM dexamethasone, 10 μg/ml insulin and 0.5 mM 3-isobutyl-1-methylxanthine (Sigma-Aldrich, St. Louis, MO, USA) in DMEM with 10% FBS. Differentiating 3T3-L1 preadipocytes were treated with TQ or Vitamin D3 or combinations thereof for 6 days.
The size of the lipid droplets in differentiated adipocytes (i.e., 3T3-L1 cells prepared as in the previous section) following the various treatments was measured using oil red O staining. Briefly, differentiated adipocytes were washed with phosphate buffered saline (PBS) and fixed in 3.7% formaldehyde for 10 min. Cells were stained with oil red O solution for 30 min at 25° C. Staining was visualized using bright-field microscopy. Lipid droplet size was then measured using Image Pro (advance Imaging Concept, Inc., Princeton, NJ).
The aim of this study was to investigate the effect of combinations of TQ and vitamin D3 on the accumulation of lipids in cultured adipocytes. For the purpose of this investigation, 3T3-L1 murine fibroblasts were grown and differentiated as described hereinabove. The differentiated cultures were then treated for six days with TO, vitamin D3 or combinations thereof. Following this treatment, the size of the accumulated lipid droplets within the cultured cells were assessed using the oil red O staining method described hereinabove.

TNF-α = assay: Western blot, TNF-α levels produced by cultured differentiated 3T3-L1 cells; conditions: 1 μM TQ alone or 10 nM Vitamin D3 alone, vs untreated control (C), FIG. 9
Experimental: as §1
(§2) The cultured adipocytes were homogenized and lysed in RIPA lysis buffer containing protease and phosphatase inhibitors (Complete TM Mini and PhosSTOPTM, Roche Diagnostics, Indianapolis, IN). Protein samples were separated using 10% sodium dodecyl sulfate-polyacrylamide (SDS) gels and transferred to a nitrocellulose membrane (Bio-Rad, Hercules, CA, USA). […] The blots were visualized using an Odyssey Infrared Imaging Scanner (Li-Cor Science Tec) and quantified by densitometric analysis after normalization with β-actin. […]
The levels of TNF-α produced by cultured, differentiated 3T3-L1 cells were measured using specific anti-TNF-α antibodies in a western blot assay, as described hereinabove. […]

Mfn2 = assay: Western blot, Mfn2 expression in cultured adipocytes; conditions: TQ 1 μM, vitamin D3 10 nM, alone or combined; 6 days; relative to β-actin; vs untreated control (C); FIG. 8
Experimental: as §1
as §2, with “IN).” for “IN). Protein samples were separated using 10% sodium dodecyl sulfate-polyacrylamide (SDS) gels and transferred to a nitrocellulose membrane (Bio-Rad, Hercules, CA, USA).”
(§3) The aim of this study was to investigate the effect of a combination of vitamin D3 (10 nM) and TQ (1 μM) on the expression of the UCP1, PGC-1α and Mfn2 genes in cultured adipocytes. […] Following SDS-PAGE separation and western blotting, the three gene products were detected using the appropriate antibodies, and the level of each protein measured, all as described above in the general methods section.

PGC-1α = assay: Western blot, PGC-1α expression in cultured adipocytes; conditions: TQ 1 μM, vitamin D3 10 nM, alone or combined; 6 days; relative to β-actin; FIG. 7
Experimental: as §1
as §2, with “IN).” for “IN). Protein samples were separated using 10% sodium dodecyl sulfate-polyacrylamide (SDS) gels and transferred to a nitrocellulose membrane (Bio-Rad, Hercules, CA, USA).”
as §3

UCP1 = assay: Western blot, UCP1 expression in cultured adipocytes; conditions: TQ 1 μM, vitamin D3 10 nM, alone or combined; 6 days; relative to β-actin; FIG. 6
Experimental: as §1
as §2, with “IN).” for “IN). Protein samples were separated using 10% sodium dodecyl sulfate-polyacrylamide (SDS) gels and transferred to a nitrocellulose membrane (Bio-Rad, Hercules, CA, USA).”
as §3

**Q.** How did the “average lipid droplet size” value ([1]; TQ 1 μM, FIG. 1) turn out when `CC1=CC(=O)C(C(C)C)=CC1=O` [TQ, thymoquinone] was run?
**A.** statistically significant reduction in lipid droplet size

**Q.** What about the “average lipid droplet size” value ([1]; TQ 2 μM, FIG. 1) of the same compound?
**A.** statistically significant reduction in lipid droplet size; also recorded: greater degree of size reduction than that caused by the 1 μM dose; also recorded: greatest effect

**Q.** And the “average lipid droplet size” value ([1]; TQ 4 μM, FIG. 1)?
**A.** statistically significant reduction in lipid droplet size; also recorded: did not cause any further enhancement of this effect; also recorded: greatest effect

**Q.** What about the “decrease in TNF-α expression” value (TNF-α) of the same compound?
**A.** approximately 50%

**Q.** What about the Mfn2 expression (Mfn2) of the same compound?
**A.** statistically significant elevation of Mfn2 expression

**Q.** And the PGC-1α expression (PGC-1α)?
**A.** statistically significant elevation of PGC-1α expression

**Q.** What about the UCP1 expression (UCP1) of the same compound?
**A.** statistically significant elevation of UCP1 expression

**Q.** `C=C1CC[C@H](O)C/C1=C/C=C1\CCC[C@]2(C)[C@@H]([C@H](C)CCCC(C)C)CC[C@@H]12` [Vitamin D3, cholecalciferol, reference compound] was tested. Which “average lipid droplet size” value ([1]; Vitamin D3 1 nM, FIG. 2) did it give?
**A.** slight reduction in lipid droplet size, this reduction was not statistically significant

**Q.** What about the “average lipid droplet size” value ([1]; Vitamin D3 10 nm, FIG. 2) of the same compound?
**A.** statistically significant reduction in lipid droplet size

**Q.** What about the “average lipid droplet size” value ([1]; Vitamin D3 100 nm, FIG. 2) of the same compound?
**A.** statistically significant reduction in lipid droplet size

**Q.** What about the “decrease in TNF-α expression” value (TNF-α) of the same compound?
**A.** approximately 50%

**Q.** What about the Mfn2 expression (Mfn2) of the same compound?
**A.** statistically significant elevation of Mfn2 expression

**Q.** And the PGC-1α expression (PGC-1α)?
**A.** statistically significant elevation of PGC-1α expression

**Q.** What about the UCP1 expression (UCP1) of the same compound?
**A.** statistically significant elevation of UCP1 expression
